Source: PubChem BioAssay AID330 (DTP/NCI, 2004)
Several values for one entry are separate records, joined by “and”; a condition that tells them apart may be missing. Equal entries are not always repeated. Inconclusive results and toxic doses are left out.

System: P388 leukemia ip, CD2F1 mice, survival T/C
Test: NCI In Vivo Anticancer Drug Screen. Data for tumor model P388 Leukemia (intraperitoneal) in CD2F1 (CDF1) mice
Conditions: endpoint: median survival time, higher = longer survival
Summary of the method: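 Mice carrying the transplanted tumor received test compound or vehicle. Survival was recorded in each group, and the value is the treated-group measurement divided by that of the vehicle-treated control group.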

[1] = dose: 50.0 mg/kg/injection, schedule: Q01DX005 (ip), vehicle: Klucel (hydroxypropylcellulose) (HPC)
[2] = dose: 100.0 mg/kg/injection, schedule: Q01DX005 (ip), vehicle: Klucel (hydroxypropylcellulose) (HPC)
[3] = dose: 200.0 mg/kg/injection, schedule: Q01DX005 (ip), vehicle: Klucel (hydroxypropylcellulose) (HPC)
[4] = dose: 60.0 mg/kg/injection, schedule: Q01DX005 (ip), vehicle: saline with Tween-80
[5] = dose: 120.0 mg/kg/injection, schedule: Q01DX005 (ip), vehicle: saline with Tween-80
[6] = dose: 240.0 mg/kg/injection, schedule: Q01DX005 (ip), vehicle: saline with Tween-80
[7] = dose: 100.0 mg/kg/injection, schedule: Q04DX002 (ip), vehicle: saline
[8] = dose: 200.0 mg/kg/injection, schedule: Q04DX002 (ip), vehicle: saline
[9] = dose: 50.0 mg/kg/injection, schedule: Q01DX005 (ip), vehicle: saline with Tween-80
[10] = dose: 100.0 mg/kg/injection, schedule: Q01DX005 (ip), vehicle: saline with Tween-80
[11] = dose: 200.0 mg/kg/injection, schedule: Q01DX005 (ip), vehicle: saline with Tween-80
[12] = dose: 100.0 mg/kg/injection, schedule: Q04DX002 (ip), vehicle: saline with Tween-80
[13] = dose: 50.0 mg/kg/injection, schedule: Q01DX009 (ip), vehicle: saline with Tween-80
[14] = dose: 100.0 mg/kg/injection, schedule: Q01DX009 (ip), vehicle: saline with Tween-80

COc1ccc(CCNC(=O)c2c3nc4c(C(=O)NCCc5ccc(OC)cc5)ccc(C)c4oc-3c(C)c(=O)c2N)cc1
T/C (dose: 50.0 mg/kg/injection, schedule: Q04DX003 (ip), vehicle: DMSO): 98 % of control
T/C (dose: 100.0 mg/kg/injection, schedule: Q04DX003 (ip), vehicle: DMSO): 100 % of control
T/C (dose: 200.0 mg/kg/injection, schedule: Q04DX003 (ip), vehicle: DMSO): 98 % of control

O=C1C=C(NCc2nc3ccccc3[nH]2)C(c2ccccc2)N1c1ccccc1 (centres undefined)
T/C [1]: 100 % of control
T/C [2]: 96 % of control
T/C [3]: 93 % of control

Cn1cc(CCC(=O)C2C=CC=CC2=NC(=O)CCCl)c2ccccc21 (centres undefined)
T/C [4]: 107 % of control
T/C [5]: 101 % of control
T/C [6]: 94 % of control

NC(Cc1csc2ccc(Cl)cc12)C(=O)O (centres undefined)
T/C (dose: 50.0 mg/kg/injection, schedule: Q01DX001 (ip), vehicle: Klucel (hydroxypropylcellulose) (HPC)): 102 % of control
T/C (dose: 100.0 mg/kg/injection, schedule: Q01DX001 (ip), vehicle: Klucel (hydroxypropylcellulose) (HPC)): 100 % of control

COc1ccc(C2=C(O)c3cc4ccccc4nc3S2(=O)=O)cc1
T/C (dose: 50.0 mg/kg/injection, schedule: Q04DX002 (ip), vehicle: saline): 103 % of control
T/C [7]: 100 % of control
T/C [8]: 102 % of control

COc1cccc(/C=N/NP(=S)(Oc2ccc(C(C)(C)C)cc2)Oc2ccc(C(C)(C)C)cc2)c1OC
T/C [9]: 98 % of control
T/C [10]: 95 % of control
T/C [11]: 100 % of control

NC=NC(CCC(=O)O)C(=O)O (centres undefined)
T/C (dose: 50.0 mg/kg/injection, schedule: Q01DX005 (ip), vehicle: saline): 106 % of control and 92 % of control
T/C (dose: 100.0 mg/kg/injection, schedule: Q01DX005 (ip), vehicle: saline): 99 % of control

CCOC(=O)/C(C#N)=C/C=C1/C=CC=CN1N=C(SC)SC
T/C (dose: 100.0 mg/kg/injection, schedule: Q01DX001 (ip), vehicle: saline with Tween-80): 95 % of control
T/C (dose: 200.0 mg/kg/injection, schedule: Q01DX001 (ip), vehicle: saline with Tween-80): 86 % of control
T/C (dose: 400.0 mg/kg/injection, schedule: Q01DX001 (ip), vehicle: saline with Tween-80): 87 % of control

O=c1cc(-c2ccccc2)c2ccc(O)c(CN(CCO)CCO)c2o1
T/C [12]: 89 % of control
T/C (dose: 200.0 mg/kg/injection, schedule: Q04DX002 (ip), vehicle: saline with Tween-80): 89 % of control

CCN(CC)CCNCc1cc(Cl)c2cccnc2c1O
T/C (dose: 50.0 mg/kg/injection, schedule: Q01DX009 (ip), vehicle: saline): 93 % of control
T/C (dose: 100.0 mg/kg/injection, schedule: Q01DX009 (ip), vehicle: saline): 106 % of control

CCOC(=O)N(C)C(C)Cc1ccccc1 (centres undefined)
T/C [13]: 100 % of control
T/C [14]: 104 % of control
T/C (dose: 200.0 mg/kg/injection, schedule: Q01DX009 (ip), vehicle: saline with Tween-80): 108 % of control

O=C(NCCCCCCCNC(=O)C12CC3CC(CC(C3)C1)C2)C12CC3CC(CC(C3)C1)C2
T/C (dose: 12.5 mg/kg/injection, schedule: Q01DX005 (ip), vehicle: saline with Tween-80): 93 % of control
T/C (dose: 25.0 mg/kg/injection, schedule: Q01DX005 (ip), vehicle: saline with Tween-80): 89 % of control
T/C [9]: 88 % of control and 89 % of control

COc1cccc2c1C(=O)c1c(O)c3c(c(O)c1C2=O)C[C@@](O)(C(=O)COc1ccccc1)C[C@@H]3OC1CC(N)C(O)C(C)O1 (some centres undefined)
T/C (dose: 1.56 mg/kg/injection, schedule: Q01DX009 (ip), vehicle: water): 151 % of control and 169 % of control
T/C (dose: 3.13 mg/kg/injection, schedule: Q01DX009 (ip), vehicle: water): 155 % of control and 179 % of control
T/C (dose: 6.25 mg/kg/injection, schedule: Q01DX009 (ip), vehicle: water): 174 % of control and 186 % of control
T/C (dose: 12.5 mg/kg/injection, schedule: Q01DX009 (ip), vehicle: water): 176 % of control and 179 % of control

Clc1ccc(C(Nc2nncs2)Nc2nncs2)cc1
T/C [4]: 94 % of control
T/C [5]: 93 % of control
T/C [6]: 98 % of control

C[N+](C)(C)C
T/C (dose: 2.5 mg/kg/injection, schedule: Q01DX009 (ip), vehicle: saline): 110 % of control
T/C (dose: 5.0 mg/kg/injection, schedule: Q01DX009 (ip), vehicle: saline): 100 % of control
T/C (dose: 10.0 mg/kg/injection, schedule: Q01DX009 (ip), vehicle: saline): 100 % of control

NC(=S)/C(N)=N/Nc1ccc(Cl)cc1
T/C (dose: 6.25 mg/kg/injection, schedule: Q01DX009 (ip), vehicle: saline with Tween-80): 104 % of control
T/C (dose: 12.5 mg/kg/injection, schedule: Q01DX009 (ip), vehicle: saline with Tween-80): 103 % of control
T/C (dose: 25.0 mg/kg/injection, schedule: Q01DX009 (ip), vehicle: saline with Tween-80): 106 % of control
T/C [13]: 116 % of control

CN1CCC(c2ccccc2)=C(Br)C1
T/C (dose: 60.0 mg/kg/injection, schedule: Q01DX005 (ip), vehicle: saline): 102 % of control
T/C (dose: 120.0 mg/kg/injection, schedule: Q01DX005 (ip), vehicle: saline): 98 % of control

COc1cc(NCCCCCCNC(C)C)c2nccc(C)c2c1
T/C (dose: 3.13 mg/kg/injection, schedule: Q01DX009 (ip), vehicle: saline): 91 % of control
T/C (dose: 6.25 mg/kg/injection, schedule: Q01DX009 (ip), vehicle: saline): 99 % of control
T/C (dose: 12.5 mg/kg/injection, schedule: Q01DX009 (ip), vehicle: saline): 99 % of control

C=C1C(=O)OC2CC3(C)CCCC(C)C3=CC12 (centres undefined)
T/C (dose: 12.5 mg/kg/injection, schedule: Q01DX009 (ip), vehicle: Klucel (hydroxypropylcellulose) (HPC)): 100 % of control
T/C (dose: 25.0 mg/kg/injection, schedule: Q01DX009 (ip), vehicle: Klucel (hydroxypropylcellulose) (HPC)): 96 % of control
T/C (dose: 50.0 mg/kg/injection, schedule: Q01DX009 (ip), vehicle: Klucel (hydroxypropylcellulose) (HPC)): 101 % of control
T/C (dose: 100.0 mg/kg/injection, schedule: Q01DX009 (ip), vehicle: Klucel (hydroxypropylcellulose) (HPC)): 100 % of control

c1ccc2c(c1)NC1=C(CSCC1)c1nncn1-2
T/C (dose: 100.0 mg/kg/injection, schedule: Q05DX002 (ip), vehicle: Klucel (hydroxypropylcellulose) (HPC)): 104 % of control
T/C (dose: 200.0 mg/kg/injection, schedule: Q05DX002 (ip), vehicle: Klucel (hydroxypropylcellulose) (HPC)): 100 % of control
T/C (dose: 400.0 mg/kg/injection, schedule: Q05DX002 (ip), vehicle: Klucel (hydroxypropylcellulose) (HPC)): 109 % of control

N#Cc1c(C(F)(F)F)cc(-c2cccs2)nc1C(C(=O)Nc1cc(Cl)c(Cl)cc1Cl)c1ccccc1 (centres undefined)
T/C [1]: 87 % of control
T/C [2]: 92 % of control
T/C [3]: 91 % of control

COc1ccc(C2CC(C)(N3CCCC3)Oc3cc4c(cc32)OCO4)c(OC)c1 (centres undefined)
T/C [9]: 99 % of control
T/C [10]: 96 % of control
T/C [11]: 86 % of control

Cc1cc(C=C2C(=O)c3ccccc3C2=O)cc(C)c1O
T/C [7]: 97 % of control
T/C [8]: 101 % of control
T/C (dose: 400.0 mg/kg/injection, schedule: Q04DX002 (ip), vehicle: saline): 93 % of control

O=C(O)c1ccccc1-c1c2cc(Br)c(=O)cc-2oc2[c]([Hg])c(O)c(Br)cc12
T/C (dose: 6.25 mg/kg/injection, schedule: Q01DX005 (ip), vehicle: saline): 106 % of control
T/C (dose: 12.5 mg/kg/injection, schedule: Q01DX005 (ip), vehicle: saline): 109 % of control
T/C (dose: 25.0 mg/kg/injection, schedule: Q01DX005 (ip), vehicle: saline): 107 % of control

O=C(NCCCl)Oc1ccc(F)cc1
T/C [1]: 100 % of control
T/C [2]: 100 % of control
T/C [3]: 110 % of control

O=C(NC(=S)c1cccs1)Nc1ccccc1
T/C (dose: 4.0 mg/kg/injection, schedule: Q01DX009 (ip), vehicle: saline with Tween-80): 89 % of control
T/C (dose: 8.0 mg/kg/injection, schedule: Q01DX009 (ip), vehicle: saline with Tween-80): 94 % of control
T/C (dose: 16.0 mg/kg/injection, schedule: Q01DX009 (ip), vehicle: saline with Tween-80): 87 % of control
T/C [13]: 89 % of control
T/C [14]: 100 % of control

C=CC1CCCC[S+]1CC(=O)OCC (centres undefined)
T/C (dose: 25.0 mg/kg/injection, schedule: Q04DX002 (ip), vehicle: saline with Tween-80): 91 % of control
T/C (dose: 50.0 mg/kg/injection, schedule: Q04DX002 (ip), vehicle: saline with Tween-80): 101 % of control
T/C [12]: 103 % of control and 109 % of control

O=C1/C(=C/c2cccc(O)c2O)SC(=S)N1Cc1ccco1
T/C [1]: 102 % of control
T/C [2]: 106 % of control
T/C [3]: 103 % of control
